# Target: T1, human Nav1.7 (hNav1.7) (Homo sapiens, UniProt Q15858)
# T1 construct: expressed in transfected cells
# Experiment: hNav1.7 whole-cell patch-clamp electrophysiology (automated PatchXpress 7000A or manual) in stably expressing 293 cells
# Assay type: cell-based
# Summary of the method: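 Stably transfected 293 cells lacking endogenous sodium channels; peak current evoked by depolarizing pulses during increasing compound concentrations, automated at ~20% fractional inactivation, or manually at −140 mV (resting) and ~20% inactivation. Block taken at steady state, corrected for rundown; IC50 by Hill fit.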
# [1] = human Nav1.7 stably expressed in 293 cells, whole-cell patch clamp, average IC50 from Hill fit
# T1 sequence (Q15858 whole entry): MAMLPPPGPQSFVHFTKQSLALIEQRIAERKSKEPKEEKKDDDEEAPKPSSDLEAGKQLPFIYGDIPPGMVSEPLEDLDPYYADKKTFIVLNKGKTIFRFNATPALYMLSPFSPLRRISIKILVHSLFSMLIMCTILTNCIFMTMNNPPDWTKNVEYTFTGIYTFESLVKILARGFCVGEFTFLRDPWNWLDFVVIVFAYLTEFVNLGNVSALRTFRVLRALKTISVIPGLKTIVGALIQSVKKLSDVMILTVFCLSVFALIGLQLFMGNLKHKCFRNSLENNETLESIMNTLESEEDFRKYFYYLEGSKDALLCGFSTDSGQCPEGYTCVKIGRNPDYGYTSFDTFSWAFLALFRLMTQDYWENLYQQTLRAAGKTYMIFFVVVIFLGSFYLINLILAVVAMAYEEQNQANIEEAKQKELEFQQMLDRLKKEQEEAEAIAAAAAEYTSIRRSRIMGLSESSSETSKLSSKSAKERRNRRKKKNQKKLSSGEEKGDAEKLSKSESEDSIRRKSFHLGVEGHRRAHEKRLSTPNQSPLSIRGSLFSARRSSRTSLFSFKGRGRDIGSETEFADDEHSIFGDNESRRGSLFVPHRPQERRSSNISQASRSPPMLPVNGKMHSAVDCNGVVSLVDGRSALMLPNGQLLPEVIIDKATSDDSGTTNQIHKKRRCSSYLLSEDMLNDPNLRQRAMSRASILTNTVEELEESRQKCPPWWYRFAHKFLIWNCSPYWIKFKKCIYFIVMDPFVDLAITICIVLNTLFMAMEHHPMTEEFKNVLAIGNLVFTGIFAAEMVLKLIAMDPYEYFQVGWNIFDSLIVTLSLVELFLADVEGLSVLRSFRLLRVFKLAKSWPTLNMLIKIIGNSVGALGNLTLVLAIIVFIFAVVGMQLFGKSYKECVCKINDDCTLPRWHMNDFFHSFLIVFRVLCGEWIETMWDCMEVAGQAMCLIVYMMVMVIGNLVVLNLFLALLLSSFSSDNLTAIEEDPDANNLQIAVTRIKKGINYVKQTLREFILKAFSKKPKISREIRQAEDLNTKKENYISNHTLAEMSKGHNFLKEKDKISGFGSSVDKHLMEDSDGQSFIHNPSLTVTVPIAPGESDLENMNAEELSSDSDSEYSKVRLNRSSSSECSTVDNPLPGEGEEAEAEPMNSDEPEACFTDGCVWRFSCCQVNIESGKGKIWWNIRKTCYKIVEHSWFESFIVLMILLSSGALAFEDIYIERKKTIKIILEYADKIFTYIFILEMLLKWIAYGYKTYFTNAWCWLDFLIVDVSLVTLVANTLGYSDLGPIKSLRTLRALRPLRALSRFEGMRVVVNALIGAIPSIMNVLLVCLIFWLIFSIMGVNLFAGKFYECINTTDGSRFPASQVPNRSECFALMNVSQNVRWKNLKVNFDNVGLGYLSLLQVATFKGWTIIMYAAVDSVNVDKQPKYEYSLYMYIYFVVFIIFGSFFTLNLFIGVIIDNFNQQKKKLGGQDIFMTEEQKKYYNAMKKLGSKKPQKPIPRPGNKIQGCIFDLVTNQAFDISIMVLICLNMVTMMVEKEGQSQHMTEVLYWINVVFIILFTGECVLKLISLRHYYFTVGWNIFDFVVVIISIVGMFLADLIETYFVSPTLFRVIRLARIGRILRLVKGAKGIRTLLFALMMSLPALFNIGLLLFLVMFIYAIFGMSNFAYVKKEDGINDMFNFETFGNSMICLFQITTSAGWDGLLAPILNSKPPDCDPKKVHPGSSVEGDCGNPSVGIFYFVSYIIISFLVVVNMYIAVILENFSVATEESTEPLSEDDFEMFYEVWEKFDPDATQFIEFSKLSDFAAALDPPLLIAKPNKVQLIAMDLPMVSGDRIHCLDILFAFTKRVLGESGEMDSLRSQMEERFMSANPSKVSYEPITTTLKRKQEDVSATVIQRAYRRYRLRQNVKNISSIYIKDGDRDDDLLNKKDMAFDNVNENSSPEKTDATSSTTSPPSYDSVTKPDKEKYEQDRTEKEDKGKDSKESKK
Structure (SMILES),"IC50 (average IC50, human Nav1.7) [µM]",other results
CNC(=O)c1cccc(Nc2ncnc(N3CCc4c(C#N)cccc4C3)n2)c1 [Example 72],0.9,–
CNC(=O)c1cccc(Nc2ncnc(N3CC(C)(Oc4ccc(C)cc4)C3)n2)c1 [Example 182],5.1,–
CNC(=O)c1cccc(Nc2ncnc(NCc3nc(-c4ccccc4)no3)n2)c1 [Example 254],15.7,–
CNC(=O)c1cccc(Nc2ncnc(N3CCN(c4ccc(C)cc4)CC3)n2)c1 [Example 34],0.47,–
"CNC(=O)c1cccc(Nc2nccc(N3CC(COc4ccc(Cl)cc4)C3)n2)c1 [Example O, 3-((4-(3-((4-chlorophenoxy)methyl)-1-azetidinyl)-2-pyrimidinyl)amino)-N-methylbenzamide]",–,IC50 [1]: 2.55 µM
CNC(=O)c1cccc(Nc2ncnc(N3CCC(c4ccccc4)CC3)n2)c1 [Example 65],0.84,–
CNC(=O)c1cccc(Nc2ncnc(N3CC(c4ccc(Cl)cc4)C3)n2)c1 [Example 184],5.23,–
"CNC(=O)c1cccc(Nc2nccc(N3CC(Oc4ccc(Cl)cc4C)C3)n2)c1 [Example N, 3-((4-(3-(4-chloro-2-methylphenoxy)-1-azetidinyl)-2-pyrimidinyl)amino)-N-methylbenzamide]",–,IC50 [1]: 0.26 µM
CNC(=O)c1cccc(Nc2ncnc(N3CCN(c4ccccc4F)CC3)n2)c1 [Example 95],1.35,–
CNC(=O)c1cccc(Nc2ncnc(N3CCN(c4cccc(F)c4)CC3)n2)c1 [Example 60],0.79,–
CNC(=O)c1cccc(Nc2ncnc(N3CC(COc4ccc(Cl)c5cccnc45)C3)n2)c1 [Example 255],16,–
"CNC(=O)c1cccc(Nc2nc(N3CC(Oc4ccc(F)cc4)C3)ncc2F)c1 [Example AH, 3-((5-fluoro-2-(3-(4-fluorophenoxy)-1-azetidinyl)-4-pyrimidinyl)amino)-N-methylbenzamide]",–,IC50 [1]: 0.34 µM
CNC(=O)c1cccc(Nc2ncnc(N3CCN(Cc4ccccc4OC(F)(F)F)CC3)n2)c1 [Example 191],5.6,–
"CNC(=O)c1cccc(Nc2ccnc(N3CC(Oc4ccc(F)cc4)C3)c2)c1 [Example V, 3-((2-(3-(4-fluorophenoxy)-1-azetidinyl)-4-pyridinyl)amino)-N-methylbenzamide]",–,IC50 [1]: 5.78 µM
CNC(=O)c1cccc(Nc2ncnc(N3CC(Oc4cc(Cl)ccc4Cl)C3)n2)c1 [Example 18],0.31,–
CN(C)C(=O)c1cccc(Nc2ncnc(N3CCC(OCc4ccc(OC(F)(F)F)cc4)CC3)n2)c1 [Example 240],11.1,–
"CNC(=O)c1cccc(Nc2cc(N3CC(Oc4ccc(Cl)cc4F)C3)ccn2)c1 [Example T, 3-(4-(3-(4-chloro-2-fluorophenoxy)azetidin-1-yl)pyridin-2-ylamino)-N-methylbenzamide]",–,IC50 [1]: 4.5 µM
CNC(=O)c1cccc(Nc2ncnc(N3CCC(Oc4ccc(OC(F)(F)F)c(F)c4)CC3)n2)c1 [Example 68],0.86,–
CNC(=O)c1cccc(Nc2ncnc(N3CCC(c4nc(-c5ccccc5)cs4)CC3)n2)c1 [Example 24],0.38,–
CNC(=O)c1cccc(Nc2ncnc(N3CC(COc4cccc(OC)c4)C3)n2)c1 [Example 244],12,–

Structure (SMILES),"IC50 (average IC50, human Nav1.7) [µM]",other results
CNC(=O)c1cccc(Nc2ncnc(NCCc3nc4cc(Cl)ccc4[nH]3)n2)c1 [Example 288],–,IC50 (average IC50): > 30 µM
CNC(=O)c1cccc(Nc2ncnc(N3CC(Oc4ccc(Cl)cc4C)C3)n2)c1 [Example 20],0.32,–
CNC(=O)c1cccc(Nc2ncnc(N3CCC(Oc4ccccn4)CC3)n2)c1 [Example 175],4.63,–
CNC(=O)c1cccc(Nc2nccc(N3CC(Oc4ccc(Cl)c(F)c4)C3)n2)c1 [Example 55],0.74,–
CNC(=O)c1cc(Nc2ncnc(N3CCC(c4nc(-c5ccccc5)cs4)CC3)n2)ccc1Cl [Example 27],0.4,–
CNC(=O)c1cccc(Nc2nccc(N3CC(Oc4ccc(Cl)c(C)c4)C3)n2)c1 [Example 19],0.31,–
CNC(=O)c1cccc(Nc2ncnc(N3CCC(Oc4ccc(F)c(OC(F)(F)F)c4)CC3)n2)c1 [Example 193],5.79,–
CNC(=O)c1cccc(Nc2ncnc(N3CCN(Cc4ccc(OC(F)(F)F)cc4)CC3)n2)c1 [Example 180],4.85,–
CNC(=O)c1cccc(Nc2ncnc(N3CCc4ccccc4C3)n2)c1 [Example 243],11.5,–
CNC(=O)c1cc(Nc2ncnc(N3CC(Oc4ccc(Cl)cc4)C3)n2)ccc1N(C)C [Example 50],0.65,–
CNC(=O)c1cccc(Nc2ncnc(N3CCC(C#N)(c4ccc(Cl)cc4)CC3)n2)c1 [Example 147],2.92,–
CNC(=O)c1cccc(Nc2nccc(N3CC(Oc4ccc(Cl)c(Cl)c4)C3)n2)c1 [Example 59],0.78,–
CNC(=O)c1cccc(Nc2ncnc(N3CCC(OCC(C)C)CC3)n2)c1 [Example 296],–,IC50 (average IC50): > 30 µM
CNC(=O)c1cccc(Nc2ncnc(N3CC(COc4ccc(Cl)cc4C)C3)n2)c1 [Example 73],0.9,–
CNC(=O)c1cc(F)cc(Nc2ncnc(N3CC(Oc4ccc(F)c(Cl)c4)C3)n2)c1 [Example 121],2.09,–
NC(=O)c1cccc(Nc2ncnc(N3CCc4cc(Br)ccc4C3)n2)c1 [Example 221],8.9,–
CNC(=O)c1cccc(Nc2ncnc(N3CC(Oc4ccc(F)cc4)C3)n2)c1F [Example 270],–,IC50 (average IC50): 21.1 µM
CNC(=O)c1cccc(Nc2ncnc(N3CCC(Oc4ccc(Cl)c(OC(F)(F)F)c4)CC3)n2)c1 [Example 166],4.05,–
CNC(=O)c1cccc(Nc2ncnc(N3CCC(n4cc(-c5ccc(Cl)cc5)cn4)CC3)n2)c1 [Example 167],4.16,–
CNC(=O)c1cccc(Nc2ncnc(N3CCC4(CC3)OCc3ccccc34)n2)c1 [Example 259],17.1,–

Structure (SMILES),"IC50 (average IC50, human Nav1.7) [µM]",other results
CNC(=O)c1cccc(Nc2ncnc(N3CCC(Cc4ccccc4)CC3)n2)c1 [Example 230],9.5,–
CNC(=O)c1cccc(Nc2ncnc(N3CC(COCc4ccc(C(F)(F)F)cc4)C3)n2)c1 [Example 189],5.56,–
CNC(=O)c1cccc(Nc2ncnc(N3CCC(c4ccc(Cl)cc4)CC3)n2)c1 [Example 249],13.1,–
NC(=O)c1cc(Nc2ncnc(N3CC(Oc4ccc(F)cc4)C3)n2)ccc1F [Example 291],–,IC50 (average IC50): > 30 µM
CNC(=O)c1cccc(Nc2ncnc(N3CCc4cc(C#N)ccc4C3)n2)c1 [Example 299],–,IC50 (average IC50): > 30 µM
CNC(=O)c1cccc(Nc2ncc(F)c(N3CC(Oc4ccc(F)cc4)C3)n2)c1 [Example 285],–,IC50 (average IC50): > 30 µM
CNC(=O)c1cccc(Nc2nccc(N3CC(Oc4ccc(F)c(F)c4)C3)n2)c1 [Example 106],1.6,–
NC(=O)c1cccc(Nc2ncnc(N3CCc4ccccc4C3)n2)c1 [Example 235],10.3,–
CNC(=O)c1cccc(Nc2ncnc(N3CC(COc4ccc(Cl)c(C(F)(F)F)c4)C3)n2)c1 [Example 208],8.11,–
CNC(=O)c1cccc(Nc2ncnc(N3CCC(c4ccc(C)c(C)c4)CC3)n2)c1 [Example 117],2,–
CNC(=O)c1cccc(Nc2ncnc(N3CC(COCc4ccc(Cl)cc4)C3)n2)c1 [Example 241],11.1,–
CNC(=O)c1cc(Nc2ncnc(NCCCOc3cccc(C(F)(F)F)c3)n2)ccc1Cl [Example 164],3.75,–
CNC(=O)c1cc(Nc2ncnc(N3CC(COc4ccc(Cl)cc4)C3)n2)ccc1Cl [Example 90],1.26,–
CNC(=O)c1cccc(Nc2ncnc(N3CC(OCc4ccc(F)cc4)C3)n2)c1 [Example 272],–,IC50 (average IC50): 21.7 µM
CNC(=O)c1cccc(Nc2ncnc(N(C)Cc3nc(-c4ccccc4)no3)n2)c1 [Example 280],–,IC50 (average IC50): 27.7 µM
CNC(=O)c1cccc(Nc2ncnc(N3CCC(OCc4ccc(OC(F)(F)F)cc4)CC3)n2)c1 [Example 131],2.49,–
CNC(=O)c1cccc(Nc2ncnc(N3CC=C(c4ccc(OC(F)(F)F)cc4)CC3)n2)c1 [Example 136],2.72,–
CNC(=O)c1cccc(Nc2ncnc(N3CCC(n4cc(-c5ccccc5)cn4)CC3)n2)c1 [Example 139],2.74,–
CNC(=O)c1cccc(Nc2ncnc(N[C@H](C)CCc3ccccc3)n2)c1 [Example 120],2.09,–
CNC(=O)c1cccc(Nc2ncnc(N3CCCC(Oc4cccc(Cl)c4)C3)n2)c1 (stereo not drawn) [Example 278],–,IC50 (average IC50): 26 µM

# More lines, main results first:
"IC50 (average IC50, human Nav1.7) [µM]",Structure (SMILES),other results
1.41,CNC(=O)c1cc(F)cc(Nc2ncnc(N3CC(Oc4ccc(F)cc4)C3)n2)c1 [Example 98],–
3.17,CNC(=O)c1cccc(Nc2ncnc(N3CC(Oc4cc(C)ccc4F)C3)n2)c1 [Example 155],–
0.72,CNC(=O)c1cccc(Nc2ncnc(N3CC(Oc4ccc(F)cc4Cl)C3)n2)c1 [Example 54],–
0.35,CNC(=O)c1cccc(Nc2ncnc(N3CC(Oc4ccc5c(c4)CCC5)C3)n2)c1 [Example 22],–
0.49,CNC(=O)c1cc(F)cc(Nc2ncnc(N3CC(Oc4ccc(Cl)cc4)C3)n2)c1 [Example 37],–
2.58,CNC(=O)c1cccc(Nc2ncnc(N3CC(Oc4cccc(C(C)(C)C)c4)C3)n2)c1 [Example 134],–
10.7,NC(=O)c1cccc(Nc2ncnc(N3CC(Oc4ccc(F)cc4)C3)n2)c1 [Example 237],–
8.47,CNC(=O)c1cccc(Nc2ncnc(N3CC(Oc4ccc(OCc5ccccc5)cc4)C3)n2)c1 [Example 214],–
8.68,CNC(=O)c1cccc(Nc2cc(N3CC(Oc4ccc(F)cc4)C3)ncn2)c1 [Example 218],–
0.38,CNC(=O)c1cccc(Nc2ncnc(N3CC(Oc4cccc(Cl)c4)C3)n2)c1 [Example 25],–
0.76,CNC(=O)c1cc(Nc2ncnc(N3CC(Oc4ccc(F)cc4)C3)n2)ccc1F [Example 57],–
6.8,CNC(=O)c1cccc(Nc2ccnc(N3CC(COc4ccc(Cl)cc4)C3)n2)c1 [Example 197],–
2.95,CNC(=O)c1cccc(Nc2ncnc(N3CC(Oc4ccc(F)cc4F)C3)n2)c1 [Example 148],–
4.84,CNC(=O)c1cccc(Nc2cc(N3CC(Oc4ccc(F)cc4)C3)ccn2)c1 [Example 179],–
1.2,CNC(=O)c1cccc(Nc2ncnc(N3CC(Oc4cccc(F)c4)C3)n2)c1 [Example 86],–

# — US9334269B2, “Carboxamides as inhibitors of voltage-gated sodium channels” (AMGEN INC., priority 2010, dated 2016)
